What was measured:
[1] = Photophysical characterization (UV-Vis absorption, isomerization under blue light); assay type: physicochemical
From the text: (§1) The Ziapin 2 molecule (FIG. 1a) in DMSO has a strong absorption peak centered at 470 nm (FIG. 1b) and a peak at 330nm, attributed respectively to the transitions n→Π* and Π→Π* of the E isomer. […] Azobenzene fluorescence is also an ideal tool for monitoring the switch behavior of photoreponsive materials, as well as the localization and photodynamics in living cells. The decrease of Ziapin 2 time-dependent fluorescence following exposure to blue light in DMSO solution (FIG. 1c) is related to the weakening of the photoluminescence of the E conformer due to the photoisomerization reaction. Time-dependent fluorescence measurements (FIG. 1d) indicate a clear “photo-switching” dynamics of azobenzene in living HEK293 cells, with estimated isomerization/relaxation degrees of 0.01 cm^2J^−1 and 0.0085s^−1. […] An analogous characterization was performed with the Ziapin 1 molecule (FIG. 1e,f).
The isomerization reaction for the compound NO2/1C6Py is not observed, since in this case the nitro-azobenzene having a push-pull configuration has a rapid thermal relaxation (>ns) which hinders the appearance of the absorption of the cis isomer in the investigated temporal regime (Bandara et al., Chem. Soc. Rev., 2012, 41, 1809-1825).

[2] = tested on: primary neurons; assay: Compound localization testing by confocal microscopy (Cell Mask, Vybrant markers); assay type: cell-based; details: for coverage of the cell surface / fraction of compound located in plasma membranes and in lipid rafts: primary neurons, confocal microscopy
From the text: FIG. 4: confocal microscopy images showing the localization of the Ziapin 2 molecule in the vicinity of the plasma membranes (a) and in the lipid rafts (b) of primary neurons.
FIG. 5: confocal microscopy images showing the localization of the Ziapin 1 molecule in the vicinity of the plasma membranes (a) and in the lipid rafts (b) of primary neurons.
Molecules tend to localize in cell membranes and change their conformation. […] The targeting of both molecules at the plasma membrane level was analyzed in cultures of primary neurons using specific markers for the cell membrane (Cell Mask, FIG. 4a, FIG. 5a, respectively) or for lipid rafts, membrane areas rich in cholesterol and ion channels (Vybrant, FIG. 4b, FIG. 5b, respectively).

[3] = tested on: primary neurons; assay: Electrophysiology (current-clamp) on primary neurons under light stimulation; assay type: cell-based
Procedure: FIG. 6: electrophysiology conducted on HEK293 cells (a, b), primary neurons in the absence (c, d) or in the presence of synaptic blockers (e, f) treated with Ziapin 2 and under illumination. (a) Representative average current-clamp traces recorded from HEK293 cells incubated with DMSO 0.25% (v/v) (Ctrl; black line) or 25 μM Ziapin 2 in DMSO (gray line) and photostimulated for 20 ms (top) or 200 ms (bottom) (wavelength 470 nm, light power density of 47 mW/mm^2, shaded areas in gray). (b) Average hyperpolarization and subsequent depolarization in HEK293 cells. (c, d) Representative current-clamp traces of passive (hyperpolarization/depolarization, left) and active (action potentials, right) responses recorded from neurons incubated in DMSO 0.25% (v/v) (Ctrl; black line) or with 5 μM Ziapin 2 in DMSO (gray line) in the absence (c) or presence (e) of synaptic blockers. The duration of light stimulation (20 and 200 ms, respectively) is indicated as a shaded area (wavelength 470 nm, light power density of 20 mW/mm^2). (d, f) Quantification of the hyperpolarization (left) and depolarization (right) peak in primary neurons exposed to DMSO or Ziapin 2 in the absence (d) or presence (f) of synaptic blockers and subjected to 20 or 200 ms of light stimulation.
FIG. 7: modulation of membrane capacitance and conductance in primary neurons following light stimulation. Representative traces of capacity (a) and conductance (b) recorded in current-clamp from primary neurons incubated with 0.25% (v/v) DMSO (Ctrl; black line) or 5 μM Ziapin 2 in DMSO (gray line) in the presence of synaptic and photostimulated blockers with 20 ms (left) or 200 ms (right) (wavelength 470 nm, light power density of 20 mW/mm^2, shaded areas). (c, d) Quantification of peak capacity (c) and conductance (d) variations evoked by light stimuli of 20 and 200 ms.
FIG. 8: effect of Ziapin 1 on passive and active membrane properties in primary hippocampal neurons. […] (a) Quantification of hyperpolarization (left) and depolarization (right) in response to light stimulation for 20/200 ms. […]

[4] = tested on: HEK293 cells; assay: Time-dependent fluorescence photo-switching dynamics in living HEK293 cells; assay type: cell-based
Procedure: FIG. 1: (a) scheme of the isomerization process of a compound according to the present invention. Absorption (b) and emission (c) spectra of the compound Ziapin 2 25 μM in DMSO. (d) photoswitching dynamics of Ziapin 2 in water, DMSO and in HEK293 cells. (e, f) absorption and photoluminescence of Ziapin 1 25 μM in DMSO (e) and evolution of the absorption peak at 470 nm by illuminating with a diode at 450 nm (f).
as §1

[5] = tested on: somatosensory cortex; assay: Cortical responses evoked by light in vivo (LFP recordings after stereotaxic injection); set-up: species or system mice
Procedure: FIG. 9: cortical responses evoked by light in vivo in the somatosensory cortex of mice exposed to Ziapin 2. (a) Schematic representation of the stereotaxic injection of Ziapin 2 (200 mM in 1 μl of 10% DMSO) in the somatosensory cortex (S1ShNc, 2 mm anterior to lambda, 2 mm lateral to the midline and −723 μm ventral to the brain surface) and of the 16-fiber optic coupled microelectrode system for photostimulation and field potential recordings (LFP). (b) Representative LFP recordings evoked in the somatosensory cortex with light stimulation of 20 and 200 ms (43 mW/mm^2) in mice injected with DMSO (black line) or Ziapin 2 (gray line). The shaded areas represent light stimulation. (c) Dose-response analysis of LFPs in mice injected with DMSO (black line) or Ziapin 2 (gray line) depending on the power and duration of photostimulation.
The objective was to investigate whether the light-dependent modulation of neuronal activity observed in vitro occurred also in vivo. The electrophysiological recordings were obtained by implanting an array of 16 microelectrodes coupled to an optical fiber for photostimulation. […] The response peaked at around 200 ms following the light stimulus (FIGS. 9c and d).

SMILES | trans-cis isomerization reaction in UV-Vis absorption spectra ([1]; 470 nm, FIG. 18) | coverage of the cell surface [2] | fraction of compound located in plasma membranes and in lipid rafts [2] | modulation of passive and active membrane properties following light stimulation ([3]; compared with Ziapin 2) | estimated isomerization degree [4] | estimated relaxation degree [4] | localization at the lipid rafts, Ziapin 2 compared with Ziapin 1 ([2]; primary neuron cultures exposed to compound) | membrane potential response to the light stimulus ([3]; 20 or 200 ms light) | capacity and conductivity of the membrane under light stimulation compared to the values in the dark ([3]; synaptic blockers) | diameter of the area of diffusion and absorption of the molecule by cortical cells ([5]; 1 μl in the somatosensory cortex, fluorescence analysis) | time of response peak following the light stimulus ([5]; LFP, somatosensory cortex) | LFP changes with respect to DMSO alone ([5]; absence of the light stimulus and highest power used (160 mW/mm^2)) | LFP response compared with DMSO ([5]; higher power densities) | cortical activity evaluated in terms of field potentials (LFP) ([5]; optical stimulation 20 and 200 ms, 472 nm laser, different intensities) | LFP response compared with animals treated with DMSO ([5]; stimulations at 25 and 43 mW/mm^2, 20 ms illumination) | strong absorption peak ([1]; in DMSO, E isomer, transition n→Π*) | absorption peak ([1]; in DMSO, E isomer, transition Π→Π*)
O=[N+]([O-])c1ccc(N=Nc2ccc(NCCCCCC[n+]3ccccc3)cc2)cc1 [NO2/1C6Py] | not observed |  |  |  |  |  |  |  |  |  |  |  |  |  |  |  | 
c1cc[n+](CCCCCCNc2ccc(N=Nc3ccc(N4CCCCCC4)cc3)cc2)cc1 [Ziapin 1] |  | about 20% | less than 50% | lower modulation effect |  |  |  |  |  |  |  |  |  |  |  |  | 
c1cc[n+](CCCCCCN(CCCCCC[n+]2ccccc2)c2ccc(N=Nc3ccc(N4CCCCCC4)cc3)cc2)cc1 [Ziapin 2] |  | about 20% | about 70% |  | 0.01 cm^2J^−1 | 0.0085 s⁻¹ | considerably more marked | hyperpolarization is followed by a depolarization | significant decrease | about 1 mm | around 200 ms | No significant changes | significantly higher | significant activation | significantly different | 470 nm | 330 nm
